# Patent US20260217647A1, “CANCER CELL GROWTH INHIBITING COMPOSITION AND PROCESSED FOOD” (HAGIHARA FARM PRODUCTION INSTITUTE CO., LTD., priority 2023, published 2026)
# Tested on: Jurkat cells
# Assay: Growth-inhibiting activity on human leukemia T cell line Jurkat cells (viable cell counting reagent SF, 72 h)
# Format: cell-based
# Conditions: 72 h incubation, cell viability by absorbance A450-A630
# Description: The cancer cell growth-inhibiting activity of each of the above samples was evaluated using the human leukemia T cell line, Jurkat.
# A suspension of Jurkat cells was prepared at 2×10^5 cells/mL, and 50 μL of the suspension was seeded into each well of a 96-well plate. The evaluation sample was dissolved in DMSO and subsequently diluted 500 fold with culture medium. Immediately after dilution, 50 μL of the resulting solution was added to each well to initiate treatment. After incubation for 72 h, 10 μL of the viable cell counting reagent SF was added to each well. Following incubation for 2 to 3 hours to allow color development, absorbance at 450 nm and 630 nm was measured using a microplate reader. Cell viability was then calculated using the following formula (F1).
# As, Ab, and Ac are defined as follows. • As: absorbance of evaluation well • Ab: absorbance of negative control well • Ac: absorbance of control well
# The respective “absorbances” in the above formula were calculated by subtracting the absorbance at 630 nm (A630) from the absorbance at 450 nm (A450) and was represented by “A450-A630”. Furthermore, to calculate IC50, a linear approximation was performed on a graph showing the logarithmic values of the two concentrations that most narrowly bracketed a cell viability of 50%.
smiles,measurement,setting,value
CSC/C=C(\C)CCC[C@H](C)CCC[C@H](C)CCCC(C)C [PT37],IC50,,> 100 µM
same,IC50,"Homo sapiens, Jurkat, 72 h",≥ 100 µM
